Patent publication US20260013501A1, “HERBICIDAL DERIVATIVES” (SYNGENTA CROP PROTECTION AG, priority 2022, published 2026)

What was measured:
Type in all cases: in vivo
Conditions in all cases: evaluated after 13 days
[1] = tested on: Echinochloa crus-galli (ECHCG); experiment: Pre-emergence Test (Table B1), ECHCG
Zea mays (ZEAMX) [2] = experiment: Post-emergence Test (Table B2), ZEAMX; design: key: 5-point damage scale: 5=81-100%, 4=61-80%, 3=41-60%, 2=21-40%, 1=0-20%
Method: Seeds of a variety of test species are sown in standard soil in pots (Ipomoea hederacea (IPOHE), Zea mays (ZEAMX), Echinochloa crus-galli (ECHCG), Amaranthus palmeri (AMAPA), (Amaranthus retoflexus (AMARE), and (Setaria faberi (SETFA)). After 8 days cultivation under controlled conditions in a glasshouse (at 24° C./16° C., day/night; 14 hours light; 65% humidity), the plants are sprayed with an aqueous spray solution derived from the formulation of the technical active ingredient in acetone/water (50:50) solution containing 0.5% Tween 20 (polyoxyethelyene sorbitan monolaurate, CAS RN 9005-64-5). Rate of application is shown in g/ha in the tables below. The test plants are then grown in a glasshouse under controlled conditions in a glasshouse (at 24° C./16° C., day/night; 14 hours light; 65% humidity) and watered twice daily. After 13 days the test is evaluated for the percentage damage caused to the plant. The biological activities are shown in the following table on a five-point scale (5=81-100%; 4=61-80%; 3=41-60%; 2=21-40%; 1=0-20%; -=not tested).

Zea mays (ZEAMX) [3] = experiment: Pre-emergence Test (Table B1), ZEAMX
[4] = tested on: Ipomoea hederacea (IPOHE); experiment: Pre-emergence Test (Table B1), IPOHE
[5] = tested on: Amaranthus palmeri (AMAPA); experiment: Pre-emergence Test (Table B1), AMAPA
[6] = tested on: Amaranthus retoflexus (AMARE); experiment: Pre-emergence Test (Table B1), AMARE

CCn1c(Cc2cc(C(F)(F)F)ccn2)cc(=O)c(C(=O)O)c1-c1ccc(Cl)c(Cl)c1 [Compound 18, 2-(3,4-dichlorophenyl)-1-ethyl-4-oxo-6-[[4-(trifluoromethyl)-2-pyridyl]methyl]pyridine-3-carboxylic acid]
0: Pre-emergence Test, percentage damage caused to the plant (five-point scale), ECHCG ([1]; Rate 1000 g/Ha)

CCn1c(Cc2ccc(SC)cc2)cc(=O)c(C(=O)O)c1-c1ccc(Cl)c(Cl)c1 [Compound 28, 2-(3,4-dichlorophenyl)-1-ethyl-6-[(4-methylsulfanylphenyl)methyl]-4-oxo-pyridine-3-carboxylic acid]
0: percentage damage caused to the plant, ZEAMX (Zea mays (ZEAMX) [2]; rate 1000 g/Ha) | Pre-emergence Test, percentage damage caused to the plant (five-point scale), ZEAMX (Zea mays (ZEAMX) [3]; Rate 1000 g/Ha) | Pre-emergence Test, percentage damage caused to the plant (five-point scale), IPOHE ([4]; Rate 1000 g/Ha) | Pre-emergence Test, percentage damage caused to the plant (five-point scale), AMAPA ([5]; Rate 1000 g/Ha) | Pre-emergence Test, percentage damage caused to the plant (five-point scale), AMARE ([6]; Rate 1000 g/Ha)

CCn1c(Cc2cccc(F)c2)cc(=O)c(C(=O)O)c1-c1ccc(Cl)c(Cl)c1 [Compound 37, 2-(3,4-dichlorophenyl)-1-ethyl 6-[(3-fluorophenyl)methyl]-4-oxo-pyridine-3-carboxylic acid]
0: percentage damage caused to the plant, ZEAMX (Zea mays (ZEAMX) [2]; rate 1000 g/Ha) | Pre-emergence Test, percentage damage caused to the plant (five-point scale), ZEAMX (Zea mays (ZEAMX) [3]; Rate 1000 g/Ha) | Pre-emergence Test, percentage damage caused to the plant (five-point scale), IPOHE ([4]; Rate 1000 g/Ha) | Pre-emergence Test, percentage damage caused to the plant (five-point scale), AMAPA ([5]; Rate 1000 g/Ha) | Pre-emergence Test, percentage damage caused to the plant (five-point scale), AMARE ([6]; Rate 1000 g/Ha)

CCn1c(Cc2ccnc(Cl)c2)cc(=O)c(C(=O)O)c1-c1ccc(Cl)c(Cl)c1 [Compound 41, 6-[(2-chloro-4-pyridyl)methyl]-2-(3,4-dichlorophenyl)-1-ethyl-4-oxo-pyridine-3-carboxylic acid]
0: percentage damage caused to the plant, ZEAMX (Zea mays (ZEAMX) [2]; rate 250 g/Ha) | Pre-emergence Test, percentage damage caused to the plant (five-point scale), ZEAMX (Zea mays (ZEAMX) [3]; Rate 250 g/Ha) | Pre-emergence Test, percentage damage caused to the plant (five-point scale), AMAPA ([5]; Rate 250 g/Ha) | Pre-emergence Test, percentage damage caused to the plant (five-point scale), AMARE ([6]; Rate 250 g/Ha)

CCn1c(Cc2cncc(F)c2)cc(=O)c(C(=O)O)c1-c1ccc(Cl)c(Cl)c1 [Compound 42, 2-(3,4-dichlorophenyl)-1-ethyl-6-[(5-fluoro-3-pyridyl)methyl]-4-oxo-pyridine-3-carboxylic acid]
0: Pre-emergence Test, percentage damage caused to the plant (five-point scale), ECHCG ([1]; Rate 250 g/Ha) | percentage damage caused to the plant, ZEAMX (Zea mays (ZEAMX) [2]; rate 250 g/Ha) | Pre-emergence Test, percentage damage caused to the plant (five-point scale), ZEAMX (Zea mays (ZEAMX) [3]; Rate 250 g/Ha) | Pre-emergence Test, percentage damage caused to the plant (five-point scale), AMAPA ([5]; Rate 250 g/Ha)

CCn1c(Cc2nccnc2C(=O)O)cc(=O)c(C(=O)O)c1-c1ccc(Cl)c(Cl)c1 [Compound 49, 3-[[5-carboxy-6-(3,4-dichlorophenyl)-1-ethyl-4-oxo-2-pyridyl]methyl]pyrazine-2-carboxylic acid]
0: Pre-emergence Test, percentage damage caused to the plant (five-point scale), ZEAMX (Zea mays (ZEAMX) [3]; Rate 250 g/Ha) | Pre-emergence Test, percentage damage caused to the plant (five-point scale), IPOHE ([4]; Rate 250 g/Ha) | Pre-emergence Test, percentage damage caused to the plant (five-point scale), AMARE ([6]; Rate 250 g/Ha)

CCn1c(Cc2ccsc2)cc(=O)c(C(=O)O)c1-c1ccc(Cl)c(Cl)c1 [Compound 51, 2-(3,4-dichlorophenyl)-1-ethyl-4-oxo-6-(3-thienylmethyl) pyridine-3-carboxylic acid]
0: Pre-emergence Test, percentage damage caused to the plant (five-point scale), ZEAMX (Zea mays (ZEAMX) [3]; Rate 1000 g/Ha) | Pre-emergence Test, percentage damage caused to the plant (five-point scale), IPOHE ([4]; Rate 1000 g/Ha) | Pre-emergence Test, percentage damage caused to the plant (five-point scale), AMAPA ([5]; Rate 1000 g/Ha) | Pre-emergence Test, percentage damage caused to the plant (five-point scale), AMARE ([6]; Rate 1000 g/Ha)

CCn1c(Cc2ccc(OC(F)(F)F)cc2C)cc(=O)c(C(=O)O)c1-c1ccc(Cl)c(Cl)c1 [Compound 63, 2-(3,4-dichlorophenyl)-1-ethyl-6-[[2-methyl-4-(trifluoromethoxy)phenyl]methyl]-4-oxo-pyridine-3-carboxylic acid]
0: Pre-emergence Test, percentage damage caused to the plant (five-point scale), ZEAMX (Zea mays (ZEAMX) [3]; Rate 1000 g/Ha) | Pre-emergence Test, percentage damage caused to the plant (five-point scale), IPOHE ([4]; Rate 1000 g/Ha) | Pre-emergence Test, percentage damage caused to the plant (five-point scale), AMAPA ([5]; Rate 1000 g/Ha) | Pre-emergence Test, percentage damage caused to the plant (five-point scale), AMARE ([6]; Rate 1000 g/Ha)

CCn1c(Cc2ccc(OC)c(F)c2)cc(=O)c(C(=O)O)c1-c1ccc(Cl)c(Cl)c1 [Compound 83, 2-(3,4-dichlorophenyl)-1-ethyl-6-[(3-fluoro-4-methoxy-phenyl)methyl]-4-oxo-pyridine-3-carboxylic acid]
0: Pre-emergence Test, percentage damage caused to the plant (five-point scale), ZEAMX (Zea mays (ZEAMX) [3]; Rate 1000 g/Ha) | Pre-emergence Test, percentage damage caused to the plant (five-point scale), IPOHE ([4]; Rate 1000 g/Ha) | Pre-emergence Test, percentage damage caused to the plant (five-point scale), AMAPA ([5]; Rate 1000 g/Ha) | Pre-emergence Test, percentage damage caused to the plant (five-point scale), AMARE ([6]; Rate 1000 g/Ha)

CCn1c(Cc2cc(OC)ncn2)cc(=O)c(C(=O)O)c1-c1ccc(Cl)c(Cl)c1 [Compound 100, 2-(3,4-dichlorophenyl)-1-ethyl-6-[(6-methoxypyrimidin-4-yl)methyl]-4-oxo-pyridine-3-carboxylic acid]
0: Pre-emergence Test, percentage damage caused to the plant (five-point scale), ECHCG ([1]; Rate 250 g/Ha) | Pre-emergence Test, percentage damage caused to the plant (five-point scale), ZEAMX (Zea mays (ZEAMX) [3]; Rate 250 g/Ha) | Pre-emergence Test, percentage damage caused to the plant (five-point scale), AMARE ([6]; Rate 250 g/Ha)

CCOC(=O)c1cccc(Cc2cc(=O)c(C(=O)O)c(-c3ccc(Cl)c(Cl)c3)n2CC)n1 [Compound 102, 2-(3,4-dichlorophenyl)-6-[(6-ethoxycarbonylpyridin-1-ium-2-yl)methyl]-1-ehtyl-4-oxo-pyridine-3-carboxylic acid; 2,2,2-trifluoroacetate]
0: percentage damage caused to the plant, ZEAMX (Zea mays (ZEAMX) [2]; rate 1000 g/Ha) | Pre-emergence Test, percentage damage caused to the plant (five-point scale), ZEAMX (Zea mays (ZEAMX) [3]; Rate 1000 g/Ha) | Pre-emergence Test, percentage damage caused to the plant (five-point scale), IPOHE ([4]; Rate 1000 g/Ha) | Pre-emergence Test, percentage damage caused to the plant (five-point scale), AMAPA ([5]; Rate 1000 g/Ha) | Pre-emergence Test, percentage damage caused to the plant (five-point scale), AMARE ([6]; Rate 1000 g/Ha)

CCn1c(Cc2cc(COC)cc(Cl)n2)cc(=O)c(C(=O)O)c1-c1ccc(Cl)c(Cl)c1 [Compound 103, 6-[[6-chloro-4-(methoxymethyl)-2-pyridyl]methyl]-2-(3,4-dichlorophenyl)-1-ethyl-4-oxo-pyridine-3-carboxylic acid]
0: Pre-emergence Test, percentage damage caused to the plant (five-point scale), ZEAMX (Zea mays (ZEAMX) [3]; Rate 1000 g/Ha) | Pre-emergence Test, percentage damage caused to the plant (five-point scale), IPOHE ([4]; Rate 1000 g/Ha) | Pre-emergence Test, percentage damage caused to the plant (five-point scale), AMAPA ([5]; Rate 1000 g/Ha) | Pre-emergence Test, percentage damage caused to the plant (five-point scale), AMARE ([6]; Rate 1000 g/Ha)

CCn1c(Cc2cc(C#N)ccn2)cc(=O)c(C(=O)O)c1-c1ccc(Cl)c(Cl)c1 [Compound 111, 6-[(4-cyano-2-pyridyl)methyl]-2-(3,4-dichlorophenyl)-1-ethyl-4-oxo-pyridine-3-carboxylic acid]
0: Pre-emergence Test, percentage damage caused to the plant (five-point scale), ECHCG ([1]; Rate 250 g/Ha)

CCn1c(Cc2cc(C)ncn2)cc(=O)c(C(=O)O)c1-c1ccc(Cl)c(Cl)c1 [Compound 128, 2-(3,4-dichlorophenyl)-1-ethyl-6-[(6-methylpyrimidin-4-yl)methyl]-4-oxo-pyridine-3-carboxylic acid]
0: Pre-emergence Test, percentage damage caused to the plant (five-point scale), ECHCG ([1]; Rate 250 g/Ha) | percentage damage caused to the plant, ZEAMX (Zea mays (ZEAMX) [2]; rate 250 g/Ha) | Pre-emergence Test, percentage damage caused to the plant (five-point scale), ZEAMX (Zea mays (ZEAMX) [3]; Rate 250 g/Ha)

CCn1c(Cc2cnc(Cl)cn2)cc(=O)c(C(=O)O)c1-c1ccc(Cl)c(Cl)c1 [Compound 143, 6-[(5-chloropyrazin-2-yl)methyl]-2-(3,4-dichlorophenyl)-1-ethyl-4-oxo-pyridine-3-carboxylic acid]
0: Pre-emergence Test, percentage damage caused to the plant (five-point scale), ECHCG ([1]; Rate 250 g/Ha) | percentage damage caused to the plant, ZEAMX (Zea mays (ZEAMX) [2]; rate 250 g/Ha) | Pre-emergence Test, percentage damage caused to the plant (five-point scale), ZEAMX (Zea mays (ZEAMX) [3]; Rate 250 g/Ha) | Pre-emergence Test, percentage damage caused to the plant (five-point scale), AMAPA ([5]; Rate 250 g/Ha)

CCn1c(Cc2csnc2C)cc(=O)c(C(=O)O)c1-c1ccc(Cl)c(Cl)c1 [Compound 150, 2-(3,4-dichlorophenyl)-1-ethyl-6-[(3-methylisothiazol-4-yl)methyl]-4-oxo-pyridine-3-carboxylic acid]
0: percentage damage caused to the plant, ZEAMX (Zea mays (ZEAMX) [2]; rate 250 g/Ha) | Pre-emergence Test, percentage damage caused to the plant (five-point scale), ZEAMX (Zea mays (ZEAMX) [3]; Rate 250 g/Ha) | Pre-emergence Test, percentage damage caused to the plant (five-point scale), IPOHE ([4]; Rate 250 g/Ha)
